# What was measured:
# C57bl6j mice [1] = assay: Lipid excretion in feces of mice fed a high fat diet; assay type: in vivo
# Source text: (§1) Adult male […] purchased at 8 week of age from Janvier Elevage (Le Genest-St-Isle, France) were individually housed and maintained ad libitum on high fat diet and water for 2 weeks. Seven mice were randomly allocated in 3 groups and fed with a high fat diet (lipids represented 50% of daily energy) during 2 weeks. For one kilogram, the composition of the high fat diet was: 235 g of casein, 201 g of saccharose, 3.5 g L-cystine, 85 g of starch, 116 g of maltodextrine, 60 g of cellulose, 12 g of vitamins mix, 51.5 g de mineral mix and 236 g of lard and 13 g of canola oil (UPAE, Jouy en Josas, France). Then, N-oleoyl-ethanolamide or (Z)-(R)-9-octadecenamide, N-(2-hydroxyethyl, 1-methyl) was added to the diet at the concentration of 100 mg/kg/bw. The mice are kept under treatment during 4 weeks. During the nutritional intervention, daily food intake has been monitored and the mice were weighted 3 times per week. During the last week of the experiment, the mice were kept during 5 days in metabolic cages to collect urine and feces. Lipids were extracted from feces after acidification using chloridric acid using chloroform/methanol (2:1 v/v) method. Total lipids were weighted, results were reported in mg of lipids per g of feces weight. Fat absorption was assessed using the following formula: Fat Absorption (% intake)=100*((Fat intake, g/d-fecal fat excretion, g/d)/fat intake). Example 1 was repeated except that N-oleoyl-ethanolamide as added to the diet at two different concentrations (0.1 or 1 g/kg/bw).
# C57bl6j mice [2] = assay: Intestinal lipid (fat) absorption in mice fed a high fat diet; assay type: in vivo
# Source text: as §1
# [3] = given orally in diet at 0.1 g/kg/bw (group C1 of Table 2), Example 2
# [4] = given orally in diet at 100 mg/kg/bw, 4 weeks, feces collected over 5 days in last week, Example 1
# [5] = given orally in diet at 1 g/kg/bw (group C2 of Table 2), Example 2
# [6] = given orally in diet at 100 mg/kg/bw, 4 weeks, Fat Absorption (% intake), Example 1
Structure (SMILES),Lipid Excretion (mg/g of Feces) MV (C57bl6j mice [1]; [3]),Lipid Excretion (mg/g of Feces) MV (C57bl6j mice [1]; [4]),Lipid Excretion (mg/g of Feces) MV (C57bl6j mice [1]; [5]),Intestinal Lipid Absorption (%) MV (C57bl6j mice [2]; [3]),Intestinal Lipid Absorption (%) MV (C57bl6j mice [2]; [6]),Intestinal Lipid Absorption (%) MV (C57bl6j mice [2]; [5])
"CCCCCCCC/C=C\CCCCCCCC(=O)NCCO [C1, N-oleoyl-ethanolamide]",55.31 mg/g of Feces,53.7 mg/g of Feces,45.56 mg/g of Feces,97.4%,95.61%,97.76%
"CCCCCCCC/C=C\CCCCCCCC(=O)N[C@H](C)CO [C2, (Z)-(R)-9-octadecenamide, N-(2-hydroxyethyl,1-methyl)]",–,65.6 mg/g of Feces,–,–,95.05%,–

# — US20110165198A1, “METHOD FOR REDUCING LIPID ABSORPTION BY AN ANIMAL” (priority 2008, published 2011)
